BigSolDB 2.1

SMILES: NC(=O)c1nc(F)cnc1O
- solubility (mole fraction) (in DMF, 293.15 K): 0.0109
- solubility (mole fraction) (in DMF, 298.15 K): 0.0116
- solubility (mole fraction) (in DMF, 303.15 K): 0.0128
- solubility (mole fraction) (in DMF, 308.15 K): 0.0133
- solubility (mole fraction) (in DMF, 313.15 K): 0.0156
- solubility (mole fraction) (in DMF, 318.15 K): 0.0183
- solubility (mole fraction) (in DMF, 323.15 K): 0.0212
- solubility (mole fraction) (in DMF, 328.15 K): 0.0234
- solubility (mole fraction) (in DMF, 333.15 K): 0.026
- solubility (mole fraction) (in acetone, 293.15 K): 0.00417
- solubility (mole fraction) (in acetone, 298.15 K): 0.00458
- solubility (mole fraction) (in acetone, 303.15 K): 0.00492
- solubility (mole fraction) (in acetone, 308.15 K): 0.00523
- solubility (mole fraction) (in acetone, 313.15 K): 0.00585
- solubility (mole fraction) (in acetone, 318.15 K): 0.00638
- solubility (mole fraction) (in acetone, 323.15 K): 0.00699
- solubility (mole fraction) (in acetone, 328.15 K): 0.00772
- solubility (mole fraction) (in acetone, 333.15 K): 0.00859
- solubility (mole fraction) (in acetonitrile, 293.15 K): 0.00183
- solubility (mole fraction) (in acetonitrile, 298.15 K): 0.00188
- solubility (mole fraction) (in acetonitrile, 303.15 K): 0.00193
- solubility (mole fraction) (in acetonitrile, 308.15 K): 0.00207
- solubility (mole fraction) (in acetonitrile, 313.15 K): 0.00226
- solubility (mole fraction) (in acetonitrile, 318.15 K): 0.00242
- solubility (mole fraction) (in acetonitrile, 323.15 K): 0.00268
- solubility (mole fraction) (in acetonitrile, 328.15 K): 0.00285
- solubility (mole fraction) (in acetonitrile, 333.15 K): 0.00293
- solubility (mole fraction) (in dichloromethane, 293.15 K): 0.00231
- solubility (mole fraction) (in dichloromethane, 298.15 K): 0.00271
- solubility (mole fraction) (in dichloromethane, 303.15 K): 0.00277
- solubility (mole fraction) (in dichloromethane, 308.15 K): 0.00284
- solubility (mole fraction) (in dichloromethane, 313.15 K): 0.00328
- solubility (mole fraction) (in dichloromethane, 318.15 K): 0.00359
- solubility (mole fraction) (in dichloromethane, 323.15 K): 0.00398
- solubility (mole fraction) (in dichloromethane, 328.15 K): 0.00462
- solubility (mole fraction) (in dichloromethane, 333.15 K): 0.00514
- solubility (mole fraction) (in ethanol, 293.15 K): 0.00206
- solubility (mole fraction) (in ethanol, 298.15 K): 0.00238
- solubility (mole fraction) (in ethanol, 303.15 K): 0.00252
- solubility (mole fraction) (in ethanol, 308.15 K): 0.00279
- solubility (mole fraction) (in ethanol, 313.15 K): 0.00318
- solubility (mole fraction) (in ethanol, 318.15 K): 0.00339
- solubility (mole fraction) (in ethanol, 323.15 K): 0.00366
- solubility (mole fraction) (in ethanol, 328.15 K): 0.00395
- solubility (mole fraction) (in ethanol, 333.15 K): 0.00458
- solubility (mole fraction) (in ethyl acetate, 293.15 K): 0.0036
- solubility (mole fraction) (in ethyl acetate, 298.15 K): 0.00396
- solubility (mole fraction) (in ethyl acetate, 303.15 K): 0.00442
- solubility (mole fraction) (in ethyl acetate, 308.15 K): 0.00449
- solubility (mole fraction) (in ethyl acetate, 313.15 K): 0.00497
- solubility (mole fraction) (in ethyl acetate, 318.15 K): 0.00525
- solubility (mole fraction) (in ethyl acetate, 323.15 K): 0.00572
- solubility (mole fraction) (in ethyl acetate, 328.15 K): 0.00599
- solubility (mole fraction) (in ethyl acetate, 333.15 K): 0.00662
- solubility (mole fraction) (in isopropanol, 293.15 K): 0.00185
- solubility (mole fraction) (in isopropanol, 298.15 K): 0.00196
- solubility (mole fraction) (in isopropanol, 303.15 K): 0.00209
- solubility (mole fraction) (in isopropanol, 308.15 K): 0.00236
- solubility (mole fraction) (in isopropanol, 313.15 K): 0.00268
- solubility (mole fraction) (in isopropanol, 318.15 K): 0.00284
- solubility (mole fraction) (in isopropanol, 323.15 K): 0.00315
- solubility (mole fraction) (in isopropanol, 328.15 K): 0.00318
- solubility (mole fraction) (in isopropanol, 333.15 K): 0.00326
- solubility (mole fraction) (in methanol, 293.15 K): 0.00147
- solubility (mole fraction) (in methanol, 298.15 K): 0.00152
- solubility (mole fraction) (in methanol, 303.15 K): 0.00156
- solubility (mole fraction) (in methanol, 308.15 K): 0.00163
- solubility (mole fraction) (in methanol, 313.15 K): 0.00169
- solubility (mole fraction) (in methanol, 318.15 K): 0.00176
- solubility (mole fraction) (in methanol, 323.15 K): 0.00182
- solubility (mole fraction) (in methanol, 328.15 K): 0.00195
- solubility (mole fraction) (in methanol, 333.15 K): 0.00199
- solubility (mole fraction) (in methyl acetate, 293.15 K): 0.00397
- solubility (mole fraction) (in methyl acetate, 298.15 K): 0.00408
- solubility (mole fraction) (in methyl acetate, 303.15 K): 0.00464
- solubility (mole fraction) (in methyl acetate, 308.15 K): 0.00499
- solubility (mole fraction) (in methyl acetate, 313.15 K): 0.00521
- solubility (mole fraction) (in methyl acetate, 318.15 K): 0.00564
- solubility (mole fraction) (in methyl acetate, 323.15 K): 0.00597
- solubility (mole fraction) (in methyl acetate, 328.15 K): 0.00624
- solubility (mole fraction) (in methyl acetate, 333.15 K): 0.00778
- solubility (mole fraction) (in n-butanol, 293.15 K): 0.00263
- solubility (mole fraction) (in n-butanol, 298.15 K): 0.00296
- solubility (mole fraction) (in n-butanol, 303.15 K): 0.00318
- solubility (mole fraction) (in n-butanol, 308.15 K): 0.00346
- solubility (mole fraction) (in n-butanol, 313.15 K): 0.00385
- solubility (mole fraction) (in n-butanol, 318.15 K): 0.00409
- solubility (mole fraction) (in n-butanol, 323.15 K): 0.00463
- solubility (mole fraction) (in n-butanol, 328.15 K): 0.00499
- solubility (mole fraction) (in n-butanol, 333.15 K): 0.00537
- solubility (mole fraction) (in n-butyl acetate, 293.15 K): 0.00502
- solubility (mole fraction) (in n-butyl acetate, 298.15 K): 0.00513
- solubility (mole fraction) (in n-butyl acetate, 303.15 K): 0.00582
- solubility (mole fraction) (in n-butyl acetate, 308.15 K): 0.00641
- solubility (mole fraction) (in n-butyl acetate, 313.15 K): 0.00681
- solubility (mole fraction) (in n-butyl acetate, 318.15 K): 0.00741
- solubility (mole fraction) (in n-butyl acetate, 323.15 K): 0.00839
- solubility (mole fraction) (in n-butyl acetate, 328.15 K): 0.00894
- solubility (mole fraction) (in n-butyl acetate, 333.15 K): 0.00986
- solubility (mole fraction) (in n-propanol, 293.15 K): 0.00188
- solubility (mole fraction) (in n-propanol, 298.15 K): 0.00197
- solubility (mole fraction) (in n-propanol, 303.15 K): 0.00225
- solubility (mole fraction) (in n-propanol, 308.15 K): 0.00258
- solubility (mole fraction) (in n-propanol, 313.15 K): 0.00276
- solubility (mole fraction) (in n-propanol, 318.15 K): 0.00299
- solubility (mole fraction) (in n-propanol, 323.15 K): 0.00316
- solubility (mole fraction) (in n-propanol, 328.15 K): 0.00349
- solubility (mole fraction) (in n-propanol, 333.15 K): 0.00395
